Laboratory results as given in ChEMBL document CHEMBL1201862, “PubChem BioAssay data set” (2004).
“And” between values parts separate entries of the source, which are not always exact repeats. Identical values can stand only once. Counter-ions that a name gives are not always drawn. The source made the active and inactive calls.

How the values were obtained:
[1] = growth suppression of PTEN-null colon cells, dose response, cell-based, HCT116 PTEN knockout (AID 1047); format: functional;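 further: HCT116 colon tumor cells with PTEN knocked out; cells exposed to compound for 60 hours before readout; potency for loss of cell viability measured by luminescence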
[2] = growth suppression of beta-catenin-knockout colon cells, dose response, cell-based, HCT116, human colon tumor (AID 1045); format: functional;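 further: HCT116 colon tumor cells with beta catenin knocked out; cells exposed to compound for 60 hours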
[3] = microbe, parasite or virus in culture; format: functional; settings: Mycobacterium tuberculosis
[4] = Luminescence Cell-Based Dose Retest to Confirm Inhibitors of Cancer Stem Cells. [Related pubchem assays (depositor defined):AID2717, AID2721]; format: functional; settings: Homo sapiens
Cytochrome P450 3A4 = Cytochrome P450 3A4 (Homo sapiens, UniProt P08684); settings: Potency;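 further: confirmatory qHTS run detecting inhibitors and substrates of CYP3A4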
Cytochrome P450 3A4, sequence (P08684 whole entry): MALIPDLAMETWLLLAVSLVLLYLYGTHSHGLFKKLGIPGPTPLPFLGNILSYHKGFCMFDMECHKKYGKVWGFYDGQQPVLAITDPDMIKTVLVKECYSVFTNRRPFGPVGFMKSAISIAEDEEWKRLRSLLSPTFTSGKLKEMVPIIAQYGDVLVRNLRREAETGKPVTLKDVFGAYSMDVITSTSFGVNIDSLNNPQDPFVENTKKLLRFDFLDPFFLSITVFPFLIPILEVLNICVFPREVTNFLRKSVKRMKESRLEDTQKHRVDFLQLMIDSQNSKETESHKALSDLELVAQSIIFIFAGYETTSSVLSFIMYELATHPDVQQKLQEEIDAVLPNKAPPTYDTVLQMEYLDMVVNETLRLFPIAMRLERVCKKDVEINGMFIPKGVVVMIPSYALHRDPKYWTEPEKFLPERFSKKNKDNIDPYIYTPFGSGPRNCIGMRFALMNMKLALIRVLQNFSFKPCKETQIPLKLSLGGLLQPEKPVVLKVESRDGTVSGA

[5] = target: T1, Corticotropin-releasing factor receptor 2/Corticotropin-releasing factor-binding protein (Homo sapiens, UniProt P24387+Q13324); test: activators of CRF receptor 2 with binding protein – uHTS hits, confirmation (AID 602473); format: functional; settings: read-out: EC50_Mean
T1 sequence (Q13324 whole entry): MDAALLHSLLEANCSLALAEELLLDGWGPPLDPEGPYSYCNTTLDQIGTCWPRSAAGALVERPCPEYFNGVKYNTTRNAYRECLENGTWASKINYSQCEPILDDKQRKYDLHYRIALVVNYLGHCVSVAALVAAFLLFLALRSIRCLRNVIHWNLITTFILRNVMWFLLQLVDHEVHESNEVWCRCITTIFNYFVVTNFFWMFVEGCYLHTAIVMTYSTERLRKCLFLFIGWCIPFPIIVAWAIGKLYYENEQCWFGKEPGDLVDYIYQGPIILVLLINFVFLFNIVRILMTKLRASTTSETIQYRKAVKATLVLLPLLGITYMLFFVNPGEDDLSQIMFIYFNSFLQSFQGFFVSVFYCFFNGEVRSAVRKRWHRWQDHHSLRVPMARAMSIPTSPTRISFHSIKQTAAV
T1 sequence (P24387 whole entry): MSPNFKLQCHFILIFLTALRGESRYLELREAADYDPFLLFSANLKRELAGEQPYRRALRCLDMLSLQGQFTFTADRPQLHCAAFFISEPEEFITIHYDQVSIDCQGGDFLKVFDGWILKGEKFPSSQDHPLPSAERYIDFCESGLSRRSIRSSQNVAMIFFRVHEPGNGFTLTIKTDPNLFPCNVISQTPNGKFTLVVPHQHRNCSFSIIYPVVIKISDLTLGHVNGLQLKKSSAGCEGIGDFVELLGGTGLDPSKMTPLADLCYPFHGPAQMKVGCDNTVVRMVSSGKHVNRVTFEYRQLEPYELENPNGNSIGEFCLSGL

[6] = target: T1, Corticotropin-releasing factor receptor 2/Corticotropin-releasing factor-binding protein; test: Dose Response confirmation of uHTS hits for small molecule antagonists of the CRF-binding protein and CRF-R2 receptor complex.; format: functional; settings: read-out: IC50_Mean
cells = format: functional
[7] = inhibitors of clade B AD8 Env fusion, dose response, cell-based, cherry-pick (AID 652062); format: functional;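 further: luciferase signal from cell-cell fusion driven by HIV-1 clade B AD8 Env; potency is for inhibitors of fusion seen as a drop in luminescence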
[8] = inhibitors of HIV Env-driven cell fusion, dose response, cherry-pick (AID 652057); format: functional, cell-based
INS1 = test: beta cell apoptosis inhibitors, cytokine rescue, dose response, luminescence, retest (AID 449756); format: functional, cell-based; settings: Rattus norvegicus;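 further: cell death triggered by IL-1 beta plus TNF-alpha plus IFN-gamma mixture; protective hits raise ATP signal compared with cytokine alone wells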
[9] = system: Streptococcus sp. 'group A'; test: growth inhibition of control SK(-) GAS strain, dose response, counter-screen for streptokinase expression inhibitor project, luminescence, kanamycin, BacTiterGlo, confirmation (AID 1900); format: functional, organism-based
Streptokinase A = target: T2, Streptokinase A (Streptococcus pyogenes serotype M1, UniProt P10520); test: S. pyogenes streptokinase expression inhibitors, potency, dose response, plasminogen activation absorbance, OD405 (AID 1914); format: functional, Streptococcus pyogenes M1 GAS;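 further: secreted streptokinase activity via plasminogen activation per viability signal from cell pellet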
T2 sequence (P10520 whole entry): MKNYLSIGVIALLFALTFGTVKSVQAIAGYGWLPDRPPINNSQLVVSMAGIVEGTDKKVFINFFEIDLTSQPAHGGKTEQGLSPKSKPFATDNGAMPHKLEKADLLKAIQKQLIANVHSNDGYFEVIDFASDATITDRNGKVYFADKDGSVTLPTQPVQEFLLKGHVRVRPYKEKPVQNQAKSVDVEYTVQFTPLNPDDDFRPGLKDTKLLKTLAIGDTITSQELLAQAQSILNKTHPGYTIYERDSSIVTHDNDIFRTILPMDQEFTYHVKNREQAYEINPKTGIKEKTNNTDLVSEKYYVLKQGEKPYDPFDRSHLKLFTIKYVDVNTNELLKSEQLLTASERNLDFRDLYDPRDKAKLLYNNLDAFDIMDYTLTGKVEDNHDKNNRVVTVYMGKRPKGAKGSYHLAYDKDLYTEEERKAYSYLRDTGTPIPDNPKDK

Streptococcus = test: Group A Streptococcus viability loss, dose response, counter-screen for streptokinase expression inhibitor project, luminescence, BacTiterGlo (AID 1915); format: functional, organism-based;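 further: potency for reduction of bacterial viability or growth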
Paired box protein Pax-8 = Paired box protein Pax-8 (Homo sapiens, UniProt Q06710); test: inhibitors of PAX8-driven TPO luciferase reporter, dose response, RMG-I cells, cherry-pick (AID 687027); format: functional, cell-based;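 further: luciferase reporter driven by Pax8 target thyroperoxidase promoter measured by SteadyGlo luminescence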
Paired box protein Pax-8, sequence (Q06710 whole entry): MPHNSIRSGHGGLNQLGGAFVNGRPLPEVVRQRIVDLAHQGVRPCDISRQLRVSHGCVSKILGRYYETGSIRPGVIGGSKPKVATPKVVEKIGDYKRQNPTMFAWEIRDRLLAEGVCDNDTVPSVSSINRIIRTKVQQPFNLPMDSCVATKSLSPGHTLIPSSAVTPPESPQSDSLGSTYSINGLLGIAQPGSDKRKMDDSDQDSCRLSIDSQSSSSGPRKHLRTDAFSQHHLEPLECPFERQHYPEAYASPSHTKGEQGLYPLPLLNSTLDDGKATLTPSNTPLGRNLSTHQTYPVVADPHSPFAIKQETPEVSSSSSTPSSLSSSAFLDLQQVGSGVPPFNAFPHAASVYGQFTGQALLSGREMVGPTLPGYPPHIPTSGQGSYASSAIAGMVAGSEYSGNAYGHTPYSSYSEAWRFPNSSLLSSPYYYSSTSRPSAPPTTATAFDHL

[10] = Shn3 3'UTR reporter inhibitors, dose response, cell-based, Clone20 osteoblasts, firefly luciferase, cherry-picked (AID 624132); format: functional;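 further: firefly luciferase luminescence from reporter carrying the Shn3 3'UTR in osteoblasts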
[11] = HepG2 cell cytotoxicity, dose response, cytotoxicity control for Shn3 inhibitor project, CellTiter-Glo, cherry-picked (AID 624134); format: functional, cell-based
[12] = control 3'UTR Renilla luciferase suppression, dose response, counter-screen for Shn3 inhibitor project, cell-based, Clone20-Shn3RL, cherry-picked (AID 624133); format: functional
[13] = inhibitors of intracellular T. cruzi replication, confirmation, NIH3T3 host cells, beta-gal luminescence (AID 2044); format: functional, cell-based;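 further: intracellular parasites grown in NIH/3T3 mouse fibroblasts as host cells; luminescent beta-galactosidase reporter signal from transgenic T. cruzi replicating inside host cells; inhibitors lower the luminescence signal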
[14] = cytotoxicity toward NIH3T3 fibroblasts, dose response, counter-screen, cell-based, ATP luminescence, mouse fibroblasts (AID 2010); format: functional;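 further: cells exposed to compound for about 90 hours before reading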

CCOC(=O)c1cc2c(N)c(C(=O)c3cc(C#N)c(SC)nc3C)sc2nc1C
EC50 [1]: 8.22 µM (active)
EC50 [2]: 8.35 µM (active)

Cc1nn(Cc2ccccc2)c(C)c1C(=O)OCC(=O)c1cc(C)n(CC(F)(F)F)c1C
CC50 [3]: > 40 µM (active)
AC50 [4]: 4.47 µM (active)

CCCn1c(-c2ccc(F)cc2)nc2c(N3CCC(N(C)C)C3)nc(C)nc21 (stereo unspecified)
AC50 (Cytochrome P450 3A4): 15.8 µM (inconclusive)

O=C(CCC(=O)OCC(F)(F)C(F)F)NCc1ccccc1
EC50 [5]: > 53 µM (inactive)
IC50 [6]: > 47.1 µM (inactive)

CC1=C(C(=O)OC(C)C)C(c2cccs2)N2C(=O)C(C)SC2=N1 (stereo unspecified)
EC50 [5]: > 53 µM (inactive)
IC50 [6]: > 47.1 µM (inactive)

CN=C(S)N=Nc1c(O)[nH]c2ccc(C(C)C)cc12
EC50 [1]: 22.4 µM (active)
EC50 [2]: 17.6 µM (active)

Cc1nn(Cc2ccccc2)c(C)c1NC(=O)c1cc2nc(-c3ccco3)cc(C(F)(F)F)n2n1
CC50 [3]: > 40 µM (active)

CCC(=O)Nc1cccc(C(=O)/C=C/c2cc(Br)ccc2OC)c1
EC50 [1]: 1.3 µM (active)
EC50 [2]: 0.933 µM (active)

O=C(CCSc1nnc(-c2ccccc2)o1)N1CCOCC1
IC50 (cells): 20.7 µM (active)

Nc1c(C(=O)Nc2cccc(Cl)c2Cl)sc2nc(-c3cccnc3)ccc12
EC50 [1]: 5.65 µM (active)
EC50 [2]: 11 µM (active)

CC(C)n1c(NCCc2ccccc2)nc2c1c(=O)n(C)c(=O)n2C
AC50 [7]: 17.9 µM (active)
AC50 [8]: 21.2 µM (active)

CC(C)(C)Sc1ccc2nc3c(n2c1)CCCC3
IC50 (cells): 29 µM (active)
AC50 (INS1): 14.7 µM (active)

c1ccc(Nc2nc(N3CCCCC3)nc(N3CCNCC3)n2)cc1
CC50 [3]: 23.5 µM (active)
EC50 [1]: 12.7 µM (active)
EC50 [2]: 14.3 µM (active)

COc1ccc(N(CC(=O)Nc2cc(Cl)ccc2C)S(=O)(=O)c2c(C)n[nH]c2C)cc1
CC50 [3]: > 40 µM (active)

C/C(Cl)=C\COc1cc(C)nc2c(Br)cccc12
CC50 [3]: > 40 µM (active)

O=c1c(O)c(-c2cccs2)oc2ccccc12
CC50 [3]: > 40 µM (active)
EC50 [9]: 3.69 µM (active)
EC50 (Streptokinase A): > 150 µM (not active)
EC50 (Streptococcus): > 150 µM (not active)

O=C(NC1CC2CCC1C2)C1COc2ccccc2O1 (stereo unspecified)
IC50 (cells): > 50 µM (active)

Cc1cc(NC2CCCCC2)nc(-c2ccccc2O)n1
CC50 [3]: > 40 µM (active)

O=C(NNc1c(F)c(F)cc(F)c1F)c1cc2ccccc2oc1=O
IC50 (cells): 48 µM (active)

Cc1ccc(NC(=O)Cn2cc(S(=O)(=O)c3ccc(C)cc3)c(=O)c3cc(F)ccc32)cc1
EC50 [1]: 10.9 µM (active)
EC50 [2]: 9.08 µM (active)

COc1ccccc1/C=C/C1=CC2(C)CC1(C)C(c1ccccc1OC)CC2=O (stereo unspecified)
AC50 (Cytochrome P450 3A4): 3.16 µM (inconclusive)

CCOc1ccc(NC(=O)Nc2cc(OCC(F)(F)F)cc(OCC(F)(F)F)c2)cc1
EC50 [1]: 16.9 µM (active)
EC50 [2]: 19.1 µM (active)
AC50 (Paired box protein Pax-8): 8.08 µM (active)

Cc1ccc(C)c(-c2nnc(NC(=O)COc3ccccc3)o2)c1
IC50 (cells): 5.98 µM (active)
EC50 [9]: 1.18 µM (active)
EC50 (Streptokinase A): > 150 µM (not active)
EC50 (Streptococcus): 23.1 µM (active)

Cc1nc(NC2CCCCC2)c2nc(-c3ccccc3)n(CCN(C)C)c2n1
AC50 (Cytochrome P450 3A4): 25.1 µM (inconclusive)

COc1ccc(COC(=O)CCNC(=O)c2ccc(Cl)cc2)cc1
IC50 (cells): > 50 µM (active)

CN(C)c1ccc(C(=N)c2ccc(N(C)C)cc2)cc1
AC50 (Cytochrome P450 3A4): 15.8 µM (inconclusive)

COC(=O)C(CC(=O)c1cccc(OC)c1)c1ccc(F)cc1 (stereo unspecified)
EC50 [5]: > 53 µM (inactive)
IC50 [6]: > 47.1 µM (inactive)

COc1ccc(CC(N)c2csc(NC(=O)NC(c3ccccc3)c3ccccc3)n2)cc1 (stereo unspecified)
AC50 [10]: 6.4 µM (active)
AC50 [11]: 21.1 µM (active)
AC50 [12]: 19.3 µM (active)

CC(C)c1ccc(NC(=O)Nc2nc(C(N)COCc3ccccc3)cs2)cc1 (stereo unspecified)
AC50 [10]: 5.99 µM (active)
AC50 [11]: 18.1 µM (active)
AC50 [12]: 10.8 µM (active)

Cc1cccc(NC(=O)CSc2nc3ccccc3c(=O)n2C)c1C
AC50 [10]: 2.98 µM (active)
AC50 [11]: 39 µM (active)
AC50 [12]: 15.2 µM (active)

O=C1N=C(N/N=C/c2ccccn2)SC1Cc1cccc(SC(F)F)c1 (stereo unspecified)
CC50 [3]: 14.7 µM (active)
EC50 [13]: 0.528 µM (active)
EC50 [14]: 4.95 µM (active)

C[C@@H]1CN([C@H](C)CO)C(=O)Cc2cc(NC(=O)Cc3ccccc3)ccc2O[C@@H]1CN(C)Cc1ccc(C(F)(F)F)cc1
AC50 (Paired box protein Pax-8): 11.8 µM (active)

COc1ccc(NC(=O)Nc2ccc3c(c2)C(=O)N([C@H](C)CO)C[C@H](C)[C@H](CN(C)S(=O)(=O)c2ccc(OC)cc2)O3)cc1
AC50 [7]: 4.67 µM (active)
AC50 [8]: 2.08 µM (active)

C[C@@H]1CCCCO[C@@H](CN(C)Cc2ccc(C(F)(F)F)cc2)[C@H](C)CN([C@H](C)CO)C(=O)c2cc(NS(=O)(=O)c3cccs3)ccc2O1
AC50 (Paired box protein Pax-8): 9.08 µM (active)

COC(=O)C1=C(C)N(Cc2ccccc2)[C@]23O[C@](C(=O)OC)(C(=O)N2C1c1ccccc1)C1C(=O)N(C)C(=O)C13 (stereo partly specified)
AC50 (Cytochrome P450 3A4): 2.51 µM (inconclusive) and 3.16 µM (inconclusive)

CC(=O)O[C@H]1C[C@H](O[C@H]2[C@@H](O)C[C@H](O[C@H]3[C@@H](O)C[C@H](O[C@H]4CC[C@@]5(C)[C@H](CC[C@@H]6[C@@H]5CC[C@]5(C)[C@@H](C7=CC(=O)OC7)CC[C@]65O)C4)O[C@@H]3C)O[C@@H]2C)O[C@H](C)[C@H]1O[C@@H]1O[C@H](CO)[C@@H](O)[C@H](O)[C@H]1O
AC50 (Paired box protein Pax-8): 0.345 µM (active)

Cc1cc(O)cc(=O)o1
AC50 (Cytochrome P450 3A4): 39.8 µM (inconclusive)

CC(=O)Oc1cc(OC(C)=O)c2c(=O)cc(-c3ccc(OC(C)=O)c(OC(C)=O)c3)oc2c1
AC50 (Cytochrome P450 3A4): 0.794 µM (inconclusive)

CCCCC(CC)CN=C(N)N=C(N)NCCCCCCNC(N)=NC(N)=NCC(CC)CCCC (stereo unspecified) [ALEXIDINE HYDROCHLORIDE]
CC50 [3]: 10.5 µM (active)
AC50 (INS1): 2.26 µM (active)

CC1(C)[C@@H](O)CC[C@]2(C)[C@H]3C(=O)C=C4[C@@H]5C[C@@](C)(C(=O)O)CC[C@]5(C)CC[C@@]4(C)[C@]3(C)CC[C@@H]12 [ENOXOLONE]
AC50 (Cytochrome P450 3A4): 15.8 µM (inconclusive)
